For data set [1] the following is noted: in vivo.
Experimental: They received standard oral carbimazole (Neomercazole, AFT Pharmaceuticals Ltd) tablets 5 mg administered twice daily for a week, followed by a test formulation of transdermal carbimazole (Test Formulation 1, Table 1, Example 2, below) 10 mg administered twice daily for a week, followed by Hoffman's (2002) transdermal formulation of carbimazole in poloxamer lecithin organogel (PLO), 10 mg administered twice daily for a week. At least a fortnight was allowed between treatments.
Another data set deals with total thyroxine (tT4). Kind of data set: Total thyroxine (tT4) assays before and after each week's treatment (Example 1). The data set is classed as in vivo. The following applies: cats; twice daily for a week. From the text: At least a fortnight was allowed between treatments.
The conditions of data set [2]: Hoffman et al, 2002; cited from earlier work.

On to `CCOC(=O)n1ccn(C)c1=S` [carbimazole], for which the “plasma methimazole levels relative to the published therapeutic range” value in data set [1] is listed as “in the published therapeutic range”. The “tT4 concentrations over the seven days of the trial period” value in the data set with total thyroxine (tT4) is “approximately halved”.
Take `Cn1cc[nH]c1=S` [methimazole]: the “published plasma levels with methimazole” value in data set [2] is 0.51 ± 0.15 µg/mL.

The record behind these values is patent US8748467B2, “Topical formulation” (Bayer Intellectual Property GmbH, priority 2007, dated 2014).
